Columns and labels:
[1] = test system: Sprague-Dowley rats, medial meniscal tear (MMT) model; experiment: Surgically induced meniscal tear OA in rats; format: in vivo, rat; conditions: 0.1 mg/kg subcutaneously once every three days, day 21
Description: Medial meniscal tear (MMT) model was performed at Pharmenterprises, Russia according to the published procedure[31] and approved by Ethics Committee of Pharmenterprises. Male 4-month old Sprague-Dowley rats were anesthetized with Zoletil (Vibrac, France) and Xylazine (Interchemie werken "De Adelaar" BV, Netherlands) mixture. The medial collateral ligament was transected, and the medial meniscus was grasped with a hemostat and reflected proximally toward the femur. The meniscus was transected and then skin was closed with sutures. 60–90 min after surgery rats were subcutaneously injected with flexoprofen (VIC GROUP, Russia). Treatment groups (20 rats each) were intragastrically treated with MT-SYK-03 (100 and 500 mg/kg) or vehicle control (0.5% methylcellulose solution) 24 h before OA induction and then once daily for 21 day. Active control group was subcutaneously injected with zoledronic acid (0.1 mg/kg) 24 h before OA induction and then once every three days for 21 day. After 21 day animals were sacrificed; surgically operated right knee was removed and used for image analysis.

[2] = test system: Wistar rats, MIA osteoarthritis model; experiment: Monosodium iodoacetate induced osteoarthritis in rats; format: in vivo, rat
Description: Monosodium iodoacetate (MIA) osteoarthritis model was performed at Pharmenterprises, Russia according to the known procedure[32] and approved by Ethics Committee of Pharmenterprises. Male 10 week old Wistar rats were divided into eight groups: negative control (#1), positive control (#2) and six treatment groups (#3–8), ten rats in each group. Group #1 was left intact while rats in groups #2–8 were anesthetized on the day 0 with intraperitoneal injection of Zoletil and Xylazine mixture and given a single intra-articular injection of MIA through the infrapatellar ligament of the right knee. Rats were treated as follows: (#1, #2) 0.5% solution of methylcellulose in PBS (pH = 3) as vehicle control, (#3, #5) 100 mg/kg MT-SYK-03, (#4, #6) 500 mg/kg MT-SYK-03, (#7) 50 mg/kg nalgesin and (#8) 0.1 mg/kg zoledronic acid. Rats in groups #1–4 received treatment intragastrically QD, 25 and 1 h before the MIA injection, and then daily until the end of the study on the day 28. Rats in groups #5–6 received treatment intragastrically QD from the day 7 until the end of the study. Rats in group #7 were treated QD starting on the day 14 and until the end of the study. Finally, rats in group #8 were treated subcutaneously immediately after the MIA injection and then every third day until the study end. Disease progression was monitored by measuring mechanical hyperalgesia, mechanical allodynia and grip strength of hind paws on the days 14, 21, and 28, just before the treatment, and 1, 3, 6 h after it.

mongrel rats, AIA model = experiment: Adjuvant-induced arthritis in rats; format: in vivo; conditions: for Animal death / The increase in the volume of the paws relative to the initial level: Diclofenac 8 mg/kg QD intragastric
Description: Rat adjuvant-induced arthritis (AIA) model was performed at Pharmenterprises, Russia as described previously^3 and approved by Ethics Committee of Pharmenterprises. Male 10 week old mongrel rats were divided into eleven groups: negative control (#1), positive control (#2) and nine treatment groups (#3–11), ten […] in each group. Group #1 was left intact, while subplantar injection of 0.1 mL of Complete Freund’s adjuvant (CFA, Sigma) was made on day 0 at right paws of rats in groups […]. […] Disease progression was monitored by measuring volumes of the right (involved) and left (non-involved) paws on days 0, 14, 18, 21, 25, and 28.

[3] = Zoledronic acid 0.1 mg/kg, 0–28 days once three days, 14 day, 1 hour after admin.
[4] = Zoledronic acid 0.1 mg/kg, 0–28 days once three days, 14 day, 3 hours after admin.
[5] = Zoledronic acid 0.1 mg/kg, 0–28 days once three days, 21 day, 1 hour after admin.
[6] = Zoledronic acid 0.1 mg/kg, 0–28 days once three days, 21 day, 3 hours after admin.
[7] = Zoledronic acid 0.1 mg/kg, 0–28 days once three days, 28 day, 1 hour after admin.
[8] = Zoledronic acid 0.1 mg/kg, 0–28 days once three days, 28 day, 3 hours after admin.

O=P(O)(O)C(O)(Cn1ccnc1)P(=O)(O)O [zoledronic acid, reference compound]
Lesion area [1]: 25.3 ± 2.2^& %
Lesion depth [1]: 50.5 ± 7.1%
hind paws grip strength [2, 3]: 60.4 ± 10.4 & % from the initial one
mechanical allodynia pain threshold [2, 3]: 100.6±8 & % from the initial one
mechanical hyperalgesia [2, 3]: 68.1 ± 6.3 & % from the initial one
hind paws grip strength [2, 4]: 75.4 ± 7.7 & % from the initial one
mechanical allodynia pain threshold [2, 4]: 101.3±12.3 & % from the initial one
mechanical hyperalgesia [2, 4]: 68.3 ± 3.5 & % from the initial one
hind paws grip strength [2, 5]: 96 ± 6.8 % from the initial one
mechanical allodynia pain threshold [2, 5]: 108.2±7.9 & % from the initial one
mechanical hyperalgesia [2, 5]: 85.6 ± 5.6 % from the initial one
hind paws grip strength [2, 6]: 84.3 ± 7.5 % from the initial one
mechanical allodynia pain threshold [2, 6]: 106.8±6.5 & % from the initial one
mechanical hyperalgesia [2, 6]: 83.4 ± 5.2 % from the initial one
hind paws grip strength [2, 7]: 92.8 ± 7.6 % from the initial one
mechanical allodynia pain threshold [2, 7]: 112.4±8.6 & % from the initial one
mechanical hyperalgesia [2, 7]: 81.8 ± 3.7 & % from the initial one
hind paws grip strength [2, 8]: 93.9 ± 15.5 % from the initial one
mechanical allodynia pain threshold [2, 8]: 126.6±15.4 & % from the initial one
mechanical hyperalgesia [2, 8]: 84.2 ± 7.4 % from the initial one
hind paws grip strength ([2]; rat MIA, days 14, 21, 28): stable statistically significant improvements, but only on day 28
Mechanical hyperalgesia pain threshold ([2]; rat MIA, reference drugs): positive effects, but they were statistically significant only on days 21 and 28
mechanical allodynia pain threshold ([2]; rat MIA, reference drugs): increased the pain threshold

O=C(O)Cc1ccccc1Nc1c(Cl)cccc1Cl [diclofenac, reference compound]
Animal death (mongrel rats, AIA model; 14 days): 0%
Animal death (mongrel rats, AIA model; 18 days): 0%
Animal death (mongrel rats, AIA model; 21 days): 10%
Animal death (mongrel rats, AIA model; 25 days): 20%
Animal death (mongrel rats, AIA model; 28 days): 20%
The increase in the volume of the paws relative to the initial level (mongrel rats, AIA model; non-involved paws, 14 days): 14.28±0.98& %
The increase in the volume of the paws relative to the initial level (mongrel rats, AIA model; non-involved paws, 18 days): 22.01±2.42& %
The increase in the volume of the paws relative to the initial level (mongrel rats, AIA model; non-involved paws, 21 days): 22.85±2.82& %
The increase in the volume of the paws relative to the initial level (mongrel rats, AIA model; non-involved paws, 25 days): 19.99±2.76& %
The increase in the volume of the paws relative to the initial level (mongrel rats, AIA model; non-involved paws, 28 days): 20.8±3.06& %
Volume of non-involved paws (mongrel rats, AIA model; rat AIA, diclofenac, day 28): no statistically significant effect
Rats died (mongrel rats, AIA model; rat AIA, sodium diclofenac): 20%
The increase in the volume of the paws relative to the initial level (mongrel rats, AIA model; treated paws, 14 days): 85.1 ± 8.01 & n = 10%
The increase in the volume of the paws relative to the initial level (mongrel rats, AIA model; treated paws, 18 days): 90.16 ± 9.34 & n = 10%
The increase in the volume of the paws relative to the initial level (mongrel rats, AIA model; treated paws, 21 days): 89.64 ± 9.99 & n = 9%
The increase in the volume of the paws relative to the initial level (mongrel rats, AIA model; treated paws, 25 days): 88.04 ± 12.52 &. n = 8%
The increase in the volume of the paws relative to the initial level (mongrel rats, AIA model; treated paws, 28 days): 92.37 ± 13.78 & n=8%
